Target: T1, M1 muscarinic acetylcholine receptor (M1 mAChR) (Homo sapiens, UniProt P11229)
T1 sequence (P11229 1-460): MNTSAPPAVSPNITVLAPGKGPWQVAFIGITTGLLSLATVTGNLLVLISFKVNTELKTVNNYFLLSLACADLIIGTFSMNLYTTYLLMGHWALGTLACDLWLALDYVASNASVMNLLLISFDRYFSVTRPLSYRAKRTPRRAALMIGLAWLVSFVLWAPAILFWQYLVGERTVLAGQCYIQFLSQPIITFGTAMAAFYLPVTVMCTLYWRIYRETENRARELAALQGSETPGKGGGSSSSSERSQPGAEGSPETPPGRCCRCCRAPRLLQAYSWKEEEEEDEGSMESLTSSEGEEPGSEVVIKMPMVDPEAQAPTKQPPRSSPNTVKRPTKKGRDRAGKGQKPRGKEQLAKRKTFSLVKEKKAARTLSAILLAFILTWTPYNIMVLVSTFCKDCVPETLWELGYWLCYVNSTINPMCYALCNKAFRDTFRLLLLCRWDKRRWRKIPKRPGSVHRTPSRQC
Assay: intracellular calcium mobilization in M1-CHO cells
Assay type: cell-based

EC50: 146 nM
SMILES: CCCCC1CCN(CCCN2C(=O)COc3cc(F)ccc32)CC1 [AC260584]
